Measured values from US9060971B2, “Combination pharmaceutical agents as inhibitors of HCV replication” (Enanta Pharmaceuticals, Inc., priority 2010, dated 2015).

Assays:
[1] = test system: "Huh-luc/neo-ET" HCV replicon; experiment: In vitro synergy assay, two drug combinations, luciferase, Bliss additivity; assay type: cell-based; conditions: 72 h
Description: The coding sequence of the published HCV replicon was synthesized and subsequently assembled in a modified plasmid pBR322 (Promega, Madison, Wis.) using standard molecular biology techniques. One replicon cell line (“SGR 11-7”) stably expresses HCV replicon RNA which consists of (i) the HCV 5′UTR fused to the first 12 amino acids of the capsid protein, (ii) the neomycin phosphotransferase gene (neo), (iii) the IRES from encephalomyocarditis virus (EMCV), and (iv) HCV NS2 to NS5B genes and the HCV 3′UTR. Another replicon cell line (“Huh-luc/neo-ET”) described by Vrolijk et. al. (Vrolijk et. al. (2003) Journal of Virological Methods 110:201-209, expressly incorporated by reference in its entirety) stably expresses HCV replicon RNA which consists of (i) the HCV 5′UTR fused to the first 12 amino acids of the capsid protein, (ii) the firefly luciferase reporter gene, (iii) the ubiquitin gene, (iv) the neomycin phosphotransferase gene (neo), (v) the IRES from encephalomyocarditis virus (EMCV), and (vi) HCV NS3 to NS5B genes that harbor cell culture adaptive mutations (E1202G, T12801, K1846T) and the HCV 3′UTR.
Since clinical drug resistance often develops in viral infections following single agent therapies, there is a need to assess the additive, antagonistic, or synergistic properties of combination therapies. We used the HCV replicon system to assess the potential use of our NS5A inhibitors in combination therapies with Interferon alpha, cyclosporine analogs and inhibitors targeting other HCV proteins. The acute effects of combinations of drugs were studied in the “Huh-luc/neo-ET” replicon with each chemical agent titrated in an X or Y direction in a 6 point two-fold dilution curve centered around the EC50 of each drug. Briefly, replicon cells were seeded at 7,000 cells per well in 90 ul DMEM (without phenol red, Invitrogen Cat. #31053-036) per well with 10% FCS, 1% non-essential amino acids, 1% of Glutamax and 1% of 100× penicillin/streptomycin and incubated overnight at 37° C., 5% C02, 100% relative humidity. 16-20 h after seeding cells, test compounds previously solubilized and titrated in dimethyl sulfoxide (“DMSO”) from each X plate and Y plate were diluted 1:100 in DMEM (without phenol red, Invitrogen Cat. #31053-036) with 10% FCS, 1% non-essential amino acids, 1% of Glutamax and 1% of 100× penicillin/streptomycin and added directly to the 96-well plate containing cells and growth medium at a 1:10 dilution for a final dilution of compound and DMSO of 1:1000 ([…] final concentration). Drug treated cells were incubated at 37° C., 5% C02, 100% relative humidity for 72 hours before performing a luciferase assay using 100 ul per well BriteLite Plus (Perkin Elmer) according to the manufacturer's instructions. Data analysis utilizes the method published by Prichard and Shipman (Antiviral Research, 1990. 14:181-205). Using this method, the combination data were analyzed for antagonistic, additive, or synergistic combination effects across the entire combination surface created by the diluted compounds in combination.
We used the HCV replicon system to assess the potential use of our NS5A inhibitor in combination therapies with Interferon alpha, cyclosporine analogs or inhibitors targeting other HCV proteins. Several HCV antivirals, including protease inhibitors (ITMN-191, SCH503034, VX-950), a nucleoside analog (such as those described in WO01/90121(A2), U.S. Pat. No. 6,348,587B1, WO01/60315 or WO01/32153), a nonnucleoside NS5B polymerase inhibitor (GSK625433), a cyclosporine analog, as well as Interferon alpha, are tested in combination with Compounds 90, 93 or 95 herein, inhibitors of HCV NS5A. Antivirals were tested at five concentrations each, diluted in DMSO by 2-fold dilutions. The antivirals were tested as monotherapies and in combination with Compounds 90, 93 or 95 (described herein) at various concentration ratios. […]

HCV 1b genotype replicon = experiment: HCV replicon drug screening assay (quantitative RT-PCR or luciferase), genotype 1b; assay type: cell-based; conditions: Hepatitis C virus; HCV 1b genotype replicon; quantitative RT-PCR or luciferase assay; read-out: Genotype-1b replicon EC50 Range
Method in brief: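 Huh-derived subgenomic genotype 1b replicon lines (SGR 11-7, neo; Huh-luc/neo-ET, firefly luciferase with adaptive mutations) grown at 37 °C. EC50 from HCV RNA by TaqMan one-step qRT-PCR normalised to GAPDH RNA. Cytotoxicity measured in parallel by MTS.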

[2] = in combination with Boceprevir (SCH503034)
[3] = in combination with Interferon-alpha
[4] = in combination with Telaprevir (VX-950)

Structure (SMILES): COC(=O)N[C@H](C(=O)N1CCC[C@H]1c1nc(-c2ccc(C#Cc3ccc4[nH]c([C@@H]5CC6(CC6)CN5C(=O)[C@@H](NC(=O)OC)C(C)C)nc4c3)cc2)c[nH]1)C(C)C [Compound 93]
- Bliss Volume (%) at 95% Confidence Intervals, Antagonism [1, 2]: 0%
- Bliss Volume (%) at 95% Confidence Intervals, Synergy [1, 2]: 63%
- Result (combination effect) [1, 2]: Synergistic
- Synergy Score [1, 2]: 63%
- Bliss Volume (%) at 95% Confidence Intervals, Antagonism ([1]; in combination with GSK625433): 0%
- Bliss Volume (%) at 95% Confidence Intervals, Synergy ([1]; in combination with GSK625433): 113%
- Result (combination effect) ([1]; in combination with GSK625433): Synergistic
- Synergy Score ([1]; in combination with GSK625433): 113%
- Bliss Volume (%) at 95% Confidence Intervals, Antagonism ([1]; in combination with ITMN-191): 0%
- Bliss Volume (%) at 95% Confidence Intervals, Synergy ([1]; in combination with ITMN-191): 14%
- Result (combination effect) ([1]; in combination with ITMN-191): Additive
- Synergy Score ([1]; in combination with ITMN-191): 14%
- Bliss Volume (%) at 95% Confidence Intervals, Antagonism [1, 3]: 0%
- Bliss Volume (%) at 95% Confidence Intervals, Synergy [1, 3]: 38%
- Result (combination effect) [1, 3]: Synergistic
- Synergy Score [1, 3]: 38%
- Bliss Volume (%) at 95% Confidence Intervals, Antagonism ([1]; in combination with R7128): 0%
- Bliss Volume (%) at 95% Confidence Intervals, Synergy ([1]; in combination with R7128): 14%
- Result (combination effect) ([1]; in combination with R7128): Additive
- Synergy Score ([1]; in combination with R7128): 14%
- Bliss Volume (%) at 95% Confidence Intervals, Antagonism [1, 4]: 0%
- Bliss Volume (%) at 95% Confidence Intervals, Synergy [1, 4]: 7%
- Result (combination effect) [1, 4]: Additive
- Synergy Score [1, 4]: 7%
- EC50 (HCV 1b genotype replicon): < 1 nM
